Test results taken from patent US9169252B2 (BRISTOL-MYERS SQUIBB COMPANY, priority 2014, dated 2015).
pEC50, pIC50: −log10 of the molar value. Read-outs that look alike come from different tables or passages of the source.

How the values were obtained:
IRAK4 = IRAK4 (Homo sapiens (Human), UniProt Q9NWZ3); assay: IRAK4 Inhibition Assay; format: biochemical; details: ATP 500 μM, read-out: IRAK4 IC50
How it was run: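 IRAK4 combined with fluorescent substrate and compounds, reacted 60 min at room temperature, stopped with 35 mM EDTA. Substrate and phosphorylated product separated electrophoretically on a Caliper LabChip 3000 mobility-shift reader.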

[1] = tested on: TLR2 induced IL-6 in peripheral blood mononuclear cells (PBMCs); assay: PBMC TLR2 Induced IL-6 Assay; format: cell-based, human; details: IL-6 by ELISA; for pEC50: read-out: Cell EC50; for pIC50: read-out: Cell IC50
How it was run: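 Lipoteichoic acid at 10 µg/ml served as TLR2 stimulus for 5 hours, following a 30-minute compound pretreatment at 37° C. Cells were Ficoll-isolated human PBMCs, 250000 cells/well, cultured in RPMI plus 10% heat-inactivated FCS.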

[2] = Homo sapiens, PBMC, human PBMCs, lipoteichoic acid stimulated
[3] = Homo sapiens, PBMC, PBMC TLR2 Induced IL-6 Assay, lipoteichoic acid stimulation
[4] = PBMC TLR2 Induced IL-6 Assay, lipoteichoic acid stimulation

Sequence of IRAK4 (Q9NWZ3 whole entry, species assumed): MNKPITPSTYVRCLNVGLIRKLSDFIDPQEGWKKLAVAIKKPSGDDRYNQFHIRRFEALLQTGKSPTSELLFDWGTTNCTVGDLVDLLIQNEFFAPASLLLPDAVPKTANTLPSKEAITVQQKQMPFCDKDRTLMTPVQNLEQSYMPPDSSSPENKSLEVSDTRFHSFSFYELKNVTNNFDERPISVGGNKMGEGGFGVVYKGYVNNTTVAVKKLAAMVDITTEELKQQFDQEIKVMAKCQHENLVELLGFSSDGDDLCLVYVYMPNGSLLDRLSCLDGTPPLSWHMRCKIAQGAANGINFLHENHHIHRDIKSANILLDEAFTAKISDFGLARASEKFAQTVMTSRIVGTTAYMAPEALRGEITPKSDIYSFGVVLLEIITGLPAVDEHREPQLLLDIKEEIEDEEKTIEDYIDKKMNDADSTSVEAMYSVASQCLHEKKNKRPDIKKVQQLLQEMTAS

## CC(C)Nc1cc(-n2ccc3cc(C#N)cnc32)ncc1C(=O)NCC(=O)N1CCN(C)CC1 [Example 467]
IRAK4; IRAK4 0.6 nM
  pIC50: 8.64
[1]; [2]
  pEC50: 7.59
  pIC50: 7.00

## CC(C)(O)CCNC(=O)c1cnc(-n2ccc3cc(Cl)cnc32)cc1NC1CCOCC1 [Example 36, 6-(5-chloro-1H-pyrrolo[2,3-b]pyridin-1-yl)-N-(3-hydroxy-3-methylbutyl)-4-((tetrahydro-2H-pyran-4-yl)amino)nicotinamide]
IRAK4; IRAK4 Inhibition Assay
  pIC50: 8.51
[1]; [3]
  pEC50: 6.88

## COCCn1cc(Nc2cc(-n3ncc4cc(Cl)cnc43)ncc2C(=O)NC[C@@H](F)C(C)(C)O)cn1 [Example 364]
IRAK4; IRAK4 Inhibition Assay
  pIC50: 8.59
[1]; [3]
  pIC50: 7.08

## Cn1nccc1Nc1cc(-n2ncc3cc(C#N)cnc32)ncc1C(=O)NC[C@@H](F)C(C)(C)O [Example 409]
IRAK4; IRAK4 0.6 nM
  pIC50: 7.76
[1]; [2]
  pEC50: 6.33

## CNC(=O)[C@H]1CC[C@H](NC(=O)c2cnc(-n3ccc4cc(C#N)cnc43)cc2NCC(C)(C)O)CC1 [Example 93, 6-(5-cyano-1H-pyrrolo[2,3-b]pyridin-1-yl)-4-((2-hydroxy-2-methylpropyl)amino)-N-((trans)-4-(methylcarbamoyl)cyclohexyl) nicotinamide]
IRAK4; IRAK4 Inhibition Assay
  pIC50: 8.08
[1]; [4]
  pEC50: 6.25

## CC(C)Nc1cc(-n2ccc3cc(C#N)cnc32)ncc1C(=O)N[C@H]1CC[C@H](C(C)(C)O)C1 [Example 497]
IRAK4; IRAK4 0.6 nM
  pIC50: 8.43
[1]; [2]
  pIC50: 7.01

## CC(C)(O)[C@H](F)CNC(=O)c1cnc(-n2ccc3cc(C#N)cnc32)cc1NCC1CCOCC1 [Example 482]
IRAK4; IRAK4 0.6 nM
  pIC50: 7.76
[1]; [2]
  pEC50: 6.36

## CC(C)(O)[C@H](F)CNC(=O)c1cnc(-n2ccc3cc(C#N)cnc32)cc1Nc1cccc(C(N)=O)c1 [Example 56, (R)-4-((3-carbamoylphenyl)amino)-6-(5-cyano-1H-pyrrolo[2,3-b]pyridin-1-yl)-N-(2-fluoro-3-hydroxy-3-methylbutyl)nicotinamide]
IRAK4; IRAK4 Inhibition Assay
  pIC50: 8.60
[1]; [3]
  pEC50: 6.99

## CC(C)Nc1cc(-n2ccc3cc(C#N)cnc32)ncc1C(=O)NCC(=O)NC1CCS(=O)(=O)C1 (stereo not drawn) [Example 70, 6-(5-cyano-1H-pyrrolo[2,3-b]pyridin-1-yl)-N-(2-((1,1-dioxidotetrahydrothiophen-3-yl)amino)-2-oxoethyl)-4-(isopropylamino)nicotinamide]
IRAK4; IRAK4 Inhibition Assay
  pIC50: 8.55
[1]; [3]
  pEC50: 6.68

## CCn1cc(Nc2cc(-n3ncc4cc(Cl)cnc43)ncc2C(=O)NC[C@@H](F)C(C)(C)O)cn1 [Example 357]
IRAK4; IRAK4 Inhibition Assay
  pIC50: 8.77
[1]; [3]
  pIC50: 7.17

## CC(C)(O)[C@H](F)CNC(=O)c1cnc(-n2ncc3cc(C#N)cnc32)cc1NC12CC(C1)C2 [Example 635]
IRAK4; IRAK4 0.6 nM
  pIC50: 8.74
[1]; [2]
  pIC50: 6.43

## CC(C)Nc1cc(-n2ccc3cc(C#N)cnc32)ncc1C(=O)N[C@H]1CC[C@](O)(c2ccccn2)CC1 [Example 178, 6-(5-cyano-1H-pyrrolo[2,3-b]pyridin-1-yl)-N-((1s,4s)-4-hydroxy-4-(pyridin-2-yl)cyclohexyl)-4-(isopropylamino)nicotinamide]
IRAK4; IRAK4 Inhibition Assay
  pIC50: 8.43
[1]; [3]
  pEC50: 7.00

## CCCCNC(=O)c1cnc(-n2ncc3cc(C#N)c(N)nc32)cc1NC1COC1 [Example 559]
IRAK4; IRAK4 0.6 nM
  pIC50: 8.28
[1]; [2]
  pIC50: 7.74

## CC(C)(O)[C@H](F)CNC(=O)c1cnc(-n2ncc3cc(F)cnc32)cc1NC1CCOCC1 [Example 562]
IRAK4; IRAK4 0.6 nM
  pIC50: 7.90
[1]; [2]
  pEC50: 6.59

## CC(C)Nc1cc(-n2ncc3cc(C#N)cnc32)ncc1C(=O)NCCC1(O)CCN(C2COC2)CC1 [Example 253]
IRAK4; IRAK4 Inhibition Assay
  pIC50: 8.07
[1]; [3]
  pIC50: 6.44

## CC(C)(O)[C@H](F)CNC(=O)c1cnc(-n2ccc3cc(Cl)cnc32)cc1NC1CC1 [Example 34, (R)-6-(5-chloro-1H-pyrrolo[2,3-b]pyridin-1-yl)-4-(cyclopropylamino)-N-(2-fluoro-3-hydroxy-3-methylbutyl)nicotinamide]
IRAK4; IRAK4 Inhibition Assay
  pIC50: 8.28
[1]; [3]
  pEC50: 6.74
  pIC50: 6.39

## CC[C@@H](CO)Nc1cc(-n2ncc3cc(C#N)cnc32)ncc1C(=O)NC[C@@H](F)C(C)(C)O [Example 588]
IRAK4; IRAK4 0.6 nM
  pIC50: 8.36
[1]; [2]
  pIC50: 6.30

## CC(C)Nc1cc(-n2ccc3cc(C#N)cnc32)ncc1C(=O)N[C@H]1CC[C@@](F)(c2nccn2C)CC1 [Example 420]
IRAK4; IRAK4 0.6 nM
  pIC50: 8.36
[1]; [2]
  pEC50: 6.73

## CC(C)Nc1cc(-n2ncc3cc(C#N)cnc32)ncc1C(=O)NC1CCN(S(=O)(=O)C(C)C)CC1 [Example 272]
IRAK4; IRAK4 Inhibition Assay
  pIC50: 8.29
[1]; [3]
  pIC50: 6.13

## CS(=O)(=O)[C@H]1CC[C@H](NC(=O)c2cnc(-n3ccc4cc(C#N)cnc43)cc2NC2CCOCC2)CC1 [Example 103, 6-(5-Cyano-1H-pyrrolo[2,3-b]pyridin-1-yl)-N-((trans)-4-(methylsulfonyl)cyclohexyl)-4-((tetrahydro-2H-pyran-4-yl)amino)nicotinamide]
IRAK4; IRAK4 Inhibition Assay
  pIC50: 8.46
[1]; [3]
  pEC50: 6.90

## CC(C)Nc1cc(-n2ncc3cc(C#N)cnc32)ncc1C(=O)NCCc1c[nH]cn1 [Example 311]
IRAK4; IRAK4 Inhibition Assay
  pIC50: 8.33
[1]; [3]
  pIC50: 6.46

## CC(C)CC(C)Nc1cc(-n2ccc3cc(C#N)cnc32)ncc1C(=O)NC[C@@H](F)C(C)(C)O (single isomer, unassigned) [Example 454]
IRAK4; IRAK4 0.6 nM
  pIC50: 8.23
[1]; [2]
  pEC50: 6.12
  pIC50: 6.54

## CC(C)(O)[C@H](F)CNC(=O)c1cnc(-n2cnc3cc(Cl)cnc32)cc1Nc1cnn(C(F)F)c1 [Example 400]
IRAK4; IRAK4 0.6 nM
  pIC50: 8.11
[1]; [2]
  pIC50: 6.81

## CC(C)(O)[C@H](F)CNC(=O)c1cnc(-n2ncc3cc(Cl)cnc32)cc1Nc1cnn(CCCF)c1 [Example 367]
IRAK4; IRAK4 Inhibition Assay
  pIC50: 8.89
[1]; [3]
  pIC50: 7.39

## CC(C)(O)[C@H](F)CNC(=O)c1cnc(-n2ccc3cc(C#N)cnc32)cc1NC1CCN(c2ccccc2)CC1 [Example 464]
IRAK4; IRAK4 0.6 nM
  pIC50: 8.51
[1]; [2]
  pEC50: 6.59

## CC(C)(O)[C@H](F)CNC(=O)c1cnc(-n2ncc3cc(C#N)cnc32)cc1NC1CCCOC1 (single isomer, unassigned) [Example 143]
IRAK4; IRAK4 Inhibition Assay
  pIC50: 8.19
[1]; [4]
  pEC50: 6.73

## CCNc1cc(-n2ncc3cnc(N)nc32)ncc1C(=O)NC[C@@H](F)C(C)(C)O [Example 580]
IRAK4; IRAK4 0.6 nM
  pIC50: 7.97
[1]; [2]
  pIC50: 6.31

## CC(C)Nc1cc(-n2ncc3cc(C#N)cnc32)ncc1C(=O)Nc1cnn(C2CCOCC2)c1 [Example 271]
IRAK4; IRAK4 Inhibition Assay
  pIC50: 7.80
[1]; [3]
  pIC50: 6.75

## CC(C)Nc1cc(-n2ncc3cc(C#N)cnc32)ncc1C(=O)NCCc1ccc(N(S(C)(=O)=O)S(C)(=O)=O)cc1 [Example 269]
IRAK4; IRAK4 Inhibition Assay
  pIC50: 8.44
[1]; [3]
  pIC50: 6.77

## CC(F)(F)Cn1cc(Nc2cc(-n3ncc4cc(C#N)cnc43)ncc2C(=O)NC[C@@H](F)C(C)(C)O)cn1 [Example 365]
IRAK4; IRAK4 Inhibition Assay
  pIC50: 8.77
[1]; [3]
  pIC50: 7.18

## CC(C)Nc1cc(-n2ccc3cc(C#N)cnc32)ncc1C(=O)NC[C@@H](F)C(C)NC(C)C (single isomer, unassigned) [Example 130]
IRAK4; IRAK4 Inhibition Assay
  pIC50: 8.64
[1]; [4]
  pEC50: 7.00

## CC(C)Nc1cc(-n2ccc3cc(C#N)cnc32)ncc1C(=O)NCCc1ccc(S(N)(=O)=O)cc1 [Example 58, 6-(5-cyano-1H-pyrrolo[2,3-b]pyridin-1-yl)-4-(isopropylamino)-N-(4-sulfamoylphenethyl)nicotinamide]
IRAK4; IRAK4 Inhibition Assay
  pIC50: 8.57
[1]; [3]
  pEC50: 7.31

## CC(C)(O)C(F)(F)CNC(=O)c1cnc(-n2ncc3cc(C#N)cnc32)cc1Nc1cnn(CC(F)F)c1 [Example 397]
IRAK4; IRAK4 0.6 nM
  pIC50: 8.18
[1]; [2]
  pIC50: 6.68

## C[C@@H](Nc1cc(-n2ccc3cc(C#N)cnc32)ncc1C(=O)NC[C@@H](F)C(C)(C)O)C1CC1 [Example 450]
IRAK4; IRAK4 0.6 nM
  pIC50: 8.55
[1]; [2]
  pEC50: 6.57
  pIC50: 6.36

## COC(C)(C)[C@H](F)CNC(=O)c1cnc(-n2ncc3cc(C#N)c(N)nc32)cc1NC(C)C [Example 321]
IRAK4; IRAK4 Inhibition Assay
  pIC50: 8.51
[1]; [3]
  pIC50: 7.28

## CC1(CNc2cc(-n3ccc4cc(C#N)cnc43)ncc2C(=O)NC[C@@H](F)C(C)(C)O)COC1 [Example 20, (R)-6-(5-cyano-1H-pyrrolo[2,3-b]pyridin-1-yl)-N-(2-fluoro-3-hydroxy-3-methylbutyl)-4-(((3-methyloxetan-3-yl)methyl)amino)nicotinamide]
IRAK4; IRAK4 Inhibition Assay
  pIC50: 8.24
[1]; [3]
  pEC50: 6.30

## CC(C)(O)[C@H](F)CNC(=O)c1cnc(-n2ncc3cc(C#N)cnc32)cc1NCCOC(F)F [Example 598]
IRAK4; IRAK4 0.6 nM
  pIC50: 7.78
[1]; [2]
  pIC50: 7.27

## CC(C)Nc1cc(-n2ccc3cc(C#N)cnc32)ncc1C(=O)N[C@H]1CC[C@@](F)(c2nccn2C)CC1 [Example 182, 6-(5-cyano-1H-pyrrolo[2,3-b]pyridin-1-yl)-N-((trans)-4-fluoro-4-(1-methyl-1H-imidazol-2-yl)cyclohexyl)-4-(isopropylamino)nicotinamide]
IRAK4; IRAK4 Inhibition Assay
  pIC50: 8.74
[1]; [3]
  pEC50: 7.13

## COC1CCN(c2ccc(NC(=O)c3cnc(-n4ncc5cc(C#N)cnc54)cc3NC(C)C)nc2)CC1 [Example 254]
IRAK4; IRAK4 Inhibition Assay
  pIC50: 8.00
[1]; [3]
  pIC50: 6.30

## CC(C)Nc1cc(-n2ncc3cc(C#N)cnc32)ncc1C(=O)Nc1cnn(CC(C)(C)O)c1 [Example 304]
IRAK4; IRAK4 Inhibition Assay
  pIC50: 7.97
[1]; [3]
  pIC50: 6.39

## CC(C)NC(=O)[C@H](F)CNc1cc(-n2ccc3cc(C#N)cnc32)ncc1C(=O)NC[C@@H](F)C(C)(C)O [Example 435]
IRAK4; IRAK4 0.6 nM
  pIC50: 8.00
[1]; [2]
  pEC50: 6.54

## CC(C)n1cc(Nc2cc(-n3cnc4cc(Cl)cnc43)ncc2C(=O)NC[C@@H](F)C(C)(C)O)cn1 [Example 362]
IRAK4; IRAK4 Inhibition Assay
  pIC50: 8.37
[1]; [3]
  pIC50: 6.31

## COCCn1cc(Nc2cc(-n3cnc4cc(Cl)cnc43)ncc2C(=O)NC[C@@H](F)C(C)(C)O)cn1 [Example 366]
IRAK4; IRAK4 Inhibition Assay
  pIC50: 8.10
[1]; [3]
  pIC50: 6.69
